Laboratory results as given in patent US7462345B2, “Radionuclide labeling of vitamin B12 and coenzymes thereof” (Mayo Foundation for Medical Education and Research, priority 1995, dated 2008).
Values joined by “and” are separate entries in the source; they are usually repeats but may differ in a detail not shown here. Identical values can stand only once.

Columns and labels:
[1] = Biodistribution in mice at 24 hours, gamma well counting; assay type: in vivo, Balb-C mice
[2] = tested on: transplanted sarcoma; assay: Tumor imaging, mice with transplanted sarcoma, gamma well counting; assay type: in vivo; set-up: Fat activity, gamma well counting / Muscle activity, gamma well counting: unit not given here
Text: All images for the in vivo studies were obtained on a GE 500 maxicamera using a LEAP collimator with a 20% window about the 140 keV energy peak of technetium, and a medium energy collimator with a 20% window about the 174 keV and 247 keV energy peaks of Indium. A 256×256 matrix with a dedicated pinnacle computer system was used to collect and analyze the data.

[3] = Gastrointestinal absorption after oral administration, modified Schillings test; assay type: in vivo, mice; set-up: Kidney activity, gamma well counting / Liver activity, gamma well counting / Pancreas activity, gamma well counting / Heart activity, gamma well counting / Spleen activity, gamma well counting: unit not given here
Protocol: B. Gastrointestinal Absorption: Methylcobalamin-b-(4-aminobutyl)-DTPA and DTPA alone were labeled as described above, with the exception that the 3 mCi Indium/300 μg/100 μl normal saline solutions were not diluted. […] The mice were sacrificed at 24 hrs, dissected, and studied as described above.
A modified Schillings test was performed on two mice. Specifically, each mouse received via subcutaneous and intraperitoneal administration, a 1000 μg loading dose of non-labeled methylcobalamin-b-(4-aminobutyl)amide-DTPA analogue. At 24 hrs, the mice were fed 2-3 drops of Indium-labeled methylcobalamin-b-(4-aminobutyl)amide-DTPA-complex. Urine and feces were collected from the three groups of mice after oral administration. The mice were sacrificed at 24 hours after ingestion of tracer and images and biodistribution data were obtained at that time.

[4] = 500 μCi intraperitoneal, 24 hours, mice 1-6
[5] = 500 μCi subcutaneously, mice 7-12
[6] = 500 μCi intraperitoneal, 24 hours, tumor mice 19-24
[7] = approximately 100 μCi tailvein injection, tumor mice 25-30
[8] = approximately 30 μCi orally, 24 hrs, mice 13-18
[9] = approximately 30 μCi orally, 24 hrs, mice 13-18, BKG = background

SMILES: O=C([O-])CN(CCN(CC(=O)[O-])CC(=O)[O-])CCN(CC(=O)[O-])CC(=O)[O-].[111In+3].[H+].[H+] [DTPA-^111In]
- Fat activity, gamma well counting [1, 4]: 12.6 and 19.5 and 18.8
- Heart activity, gamma well counting [1, 4]: 10.3 and 6.9 and 12.5
- Liver activity, gamma well counting [1, 4]: 56.9 and 41.5 and 66.1
- Lung activity, gamma well counting [1, 4]: 6.2 and 6.0 and 10.5
- Muscle activity, gamma well counting [1, 4]: 5.4 and 5.6 and 5.0
- Pancreas activity, gamma well counting [1, 4]: 13.4 and 13.0 and 14.1
- Heart activity, gamma well counting [1, 5]: 5.6 and 5.0 and 4.8
- Kidney activity, gamma well counting [1, 5]: 119.4 and 117.3 and 110.1
- Liver activity, gamma well counting [1, 5]: 24.0 and 25.5 and 23.2
- Lung activity, gamma well counting [1, 5]: 5.4 and 5.3 and 5.0
- Pancreas activity, gamma well counting [1, 5]: 6.0 and 6.7 and 5.9
- Spleen activity, gamma well counting [1, 5]: 19.5 and 19.0 and 18.1
- activity per organ or tissue sample, times less when compared to the methyl and adenosylcobalamin analogs ([1]; mouse, in vivo): 5-12 times
- Fat activity, gamma well counting [2, 6]: 13.7 and 17.9 and 19.2
- Heart activity, gamma well counting [2, 6]: 5.0 and 8.0 and 9.7
- Kidney activity, gamma well counting [2, 6]: 116.5 and 180.7 and 231.2
- Muscle activity, gamma well counting [2, 6]: 7.2 and 6.4 and 6.8
- Pancreas activity, gamma well counting [2, 6]: 7.1 and 11.3 and 13.9
- Tumor activity, gamma well counting [2, 6]: 52.8 and 69.3 and 73.1
- Fat activity, gamma well counting [2, 7]: 0.93 and 0.75 and 0.79
- Heart activity, gamma well counting [2, 7]: 0.94 and 0.61 and 0.85
- Kidney activity, gamma well counting [2, 7]: 14.0 and 9.9 and 10.2
- Liver activity, gamma well counting [2, 7]: 1.6 and 1.3 and 1.4
- Lung activity, gamma well counting [2, 7]: 1.7 and 0.87 and 0.93
- Spleen activity, gamma well counting [2, 7]: 1.9 and 1.4 and 1.6
- Tumor activity, gamma well counting [2, 7]: 5.0 and 2.8 and 3.4
- concentration within the transplanted tumors, times less than that of adenosylcobalamin-DTPA-^111In ([2]; mouse, in vivo): 10-20 times
- Kidney activity, gamma well counting [3, 8]: 0.64 and 0.54 and 0.59
- Liver activity, gamma well counting [3, 8]: 0.28 and 0.21 and 0.30
- Pancreas activity, gamma well counting [3, 8]: 0.93 and 0.96 and 0.61
- Spleen activity, gamma well counting [3, 8]: 0.62 and 0.67 and 0.48
- Fat activity, gamma well counting [3, 9]: <BKG
- Heart activity, gamma well counting [3, 9]: <BKG
- Lung activity, gamma well counting [3, 9]: <BKG
- Muscle activity, gamma well counting [3, 9]: <BKG
- activity in the heart, lungs, muscle, or fat tissue samples ([3]; oral): No activity was detected
- radioactivity in urine and stool ([3]; oral): detected in urine and stool by two hours
- absorption from the gastrointestinal tract ([3]; oral administration, mice): also absorbed from the gastrointestinal tract, but to a lesser degree

SMILES: CC1=C2N=C(C=C3N=C(C(C)=C4[N-]C(C(CC(N)=O)C4(C)CCC(=O)NCC(C)OP(=O)([O-])OC4C(CO)OC(n5cnc6cc(C)c(C)cc65)C4O)C4(C)N=C1C(CCC(=O)NCCCCNC(=O)CN(CCN(CCN(CC(=O)[O-])CC(=O)[O-])CC(=O)[O-])CC(=O)[O-])C4(C)CC(N)=O)C(CCC(N)=O)C3(C)C)C(CCC(N)=O)C2(C)CC(N)=O.[111In+3].[CH2-]C1OC(n2cnc3c(N)ncnc32)C(O)C1O.[Co+3] (stereo not drawn) [adenosylcobalamin-b-(4-aminobutyl)-amide-DTPA-^111In]
- Fat activity, gamma well counting [1, 4]: 101.4 and 147.3 and 102.8
- Heart activity, gamma well counting [1, 4]: 134.7 and 189.4 and 171.2
- Kidney activity, gamma well counting [1, 4]: 3717.5 and 3299.5 and 3462.7
- Liver activity, gamma well counting [1, 4]: 943.3 and 823.4 and 768.6
- Lung activity, gamma well counting [1, 4]: 130.9 and 180.1 and 113.1
- Pancreas activity, gamma well counting [1, 4]: 304.2 and 319.9 and 310.3
- Spleen activity, gamma well counting [1, 4]: 433.1 and 405.3 and 366.8
- Heart activity, gamma well counting [1, 5]: 35.0 and 29.8 and 31.3
- Kidney activity, gamma well counting [1, 5]: 621.4 and 700.5 and 601.7
- Liver activity, gamma well counting [1, 5]: 126.4 and 111.7 and 115.8
- Lung activity, gamma well counting [1, 5]: 38.4 and 51.2 and 40.6
- Pancreas activity, gamma well counting [1, 5]: 40.0 and 39.3 and 41.2
- Heart activity, gamma well counting [2, 6]: 165.0 and 134.8 and 157.8
- Kidney activity, gamma well counting [2, 6]: 3886.9 and 3115.6 and 3592.8
- Liver activity, gamma well counting [2, 6]: 691.0 and 464.8 and 675.0
- Lung activity, gamma well counting [2, 6]: 318.8 and 230.0 and 335.2
- Pancreas activity, gamma well counting [2, 6]: 445.0 and 242.7 and 439.0
- Spleen activity, gamma well counting [2, 6]: 576.3 and 309.5 and 478.3
- Tumor activity, gamma well counting [2, 6]: 954.7 and 1426.0 and 1183.1
- tumor activity relative to heart, lungs, fat, and muscle ([2]; IP and IV routes, 24 hours): 4-12 times
- tumor activity relative to liver, spleen, and pancreas ([2]; IP and IV routes, 24 hours): two to four times greater activity
- uptake within the transplanted sarcoma ([2]; at 24 hours, visually and by gamma well counting): significant amount

SMILES: CC1=C2N=C(C=C3N=C(C(C)=C4[N-]C(C(CC(N)=O)C4(C)CCC(=O)NCC(C)OP(=O)([O-])OC4C(CO)OC(n5cnc6cc(C)c(C)cc65)C4O)C4(C)N=C1C(CCC(=O)NCCCCNC(=O)CN(CCN(CCN(CC(=O)[O-])CC(=O)[O-])CC(=O)[O-])CC(=O)[O-])C4(C)CC(N)=O)C(CCC(N)=O)C3(C)C)C(CCC(N)=O)C2(C)CC(N)=O.[111In+3].[CH3-].[Co+3] (stereo not drawn) [methylcobalamin-b-(4-aminobutyl)-amide-DTPA-^111In]
- Heart activity, gamma well counting [2, 7]: 21.7 and 11.4 and 16.9
- Lung activity, gamma well counting [2, 7]: 34.4 and 19.9 and 21.3
- Muscle activity, gamma well counting [2, 7]: 23.5 and 15.5 and 14.5
- Pancreas activity, gamma well counting [2, 7]: 38.4 and 21.3 and 30.3
- Kidney activity, gamma well counting [3, 8]: 4.3 and 4.1 and 3.1
- Liver activity, gamma well counting [3, 8]: 0.82 and 0.80 and 0.73
- Pancreas activity, gamma well counting [3, 8]: 0.75 and 0.76 and 1.1
- Fat activity, gamma well counting [3, 9]: <BKG
- Heart activity, gamma well counting [3, 9]: 0.54 and 0.50
- Muscle activity, gamma well counting [3, 9]: <BKG
- activity in the urine by gamma well counting ([3]; oral, mice not flushed with non-labeled methylcobalamin-b-(4-aminobutyl)amide-DTPA): no discernable activity was detected
- radioactivity in urine ([3]; oral, mice that underwent the modified Schillings test (flushed)): detectable radioactivity within their urine at one hour
